Measured values taken from patent US20250223268A1, “4-Methylsulfonylbenzamide Compound, Preparation Method, Herbicidal Composition And Use” (Jiangsu Flag Chemical Industry Co., Ltd., priority 2022, published 2025).

Experiments:
Assay in all cases: Greenhouse herbicidal activity assay, post-emergence
Assay type in all cases: in vivo
[1] = test system: Cyperus iria; conditions: Post-emergence test, rate 150 g a.i./hm^2, grade by fresh weight inhibition rate
Description: (§1) Post-emergence: Seeds of gramineous weeds (Echinochloa crusgalli, Echinochloa crusgalli var. zelayensis, Echinochloa phyllopogon, Eleusine indica, Digitaria sanguinalis, Leptochloa chinensis, Setaria viridis, Alopecurus japonicus Steud, Beckmannia syzigachne, Polypogon fugax, Alopecurus aequalis, Lolium multiflorum, Poa annua, Aegilops tataschii, Avena fatua, Alopecurus myosuroides, Bromus japonicus), broadleaf weeds (Eclipta prostrata, Amaranthus retroflexus, Rorippa indica, Myosoton aquaticum, Veronica didyma, Galium aparine, Solanum nigrum, Xanthium sibiricum, Conyza canadensis, Sesbania cannabina, Sagittaria trifolia), and Cyperus iria (Cyperus iria, Scirpus juncoides, Cyperus difformis, etc.) were sown in plastic pots (7 cm diameter) with nutrient soil and bottom holes. Crop seeds (including Oryza sativa subsp. indica, Oryza sativa subsp. japonica, Oryza sativa L. var. Glutinosa matsum, Triticum aestivum, Zea mays, Sorghum bicolor, Setaria italica, Glycine max, Gossypium hirsutum, Brassica napus, Arachis hypogaea) were sown in plastic pots (10 cm diameter) with nutrient soil and bottom holes. After sowing, the pots were placed in the growth chamber until the plants reached the 3-6 leaf stage for foliar spraying. Post-treatment, the materials were air-dried naturally and returned to the growth chamber. Results were assessed 14-21 days later.
(§2) • A: Fresh weight inhibition rate≥80% to 100%; • B: Fresh weight inhibition rate[…] to <80%; • C: Fresh weight inhibition rate≥40% to <60%; • D: Fresh weight inhibition rate≥20% to <40%; • E: Fresh weight inhibition rate<20%; • NT: Not tested.

[2] = test system: Digitaria sanguinalis; conditions: Post-emergence test, rate 150 g a.i./hm^2, grade by fresh weight inhibition rate
Description: as §1, §2

[3] = test system: Eclipta prostrata; conditions: Post-emergence test, rate 150 g a.i./hm^2, grade by fresh weight inhibition rate
Description: as §1, §2

[4] = test system: Leptochloa chinensis; conditions: Post-emergence test, rate 150 g a.i./hm^2, grade by fresh weight inhibition rate
Description: as §1, §2

[5] = test system: Echinochloa crusgalli; conditions: Post-emergence test, rate 150 g a.i./hm^2; grade by fresh weight inhibition rate
Description: as §1, §2

SMILES	Control efficacy grade, Cyperus iria [1]	Control efficacy grade, Digitaria sanguinalis [2]	Control efficacy grade, Eclipta prostrata [3]	Control efficacy grade, Leptochloa chinensis [4]	Control efficacy grade, Echinochloa crusgalli [5]	pest or weed control at 150 g/ha ([1]; Cyperus iria, read-out: Control efficacy grade, Cyperus iria) [%]	pest or weed control at 150 g/ha ([2]; Digitaria sanguinalis, read-out: Control efficacy grade, Digitaria sanguinalis) [%]	pest or weed control at 150 g/ha ([3]; Eclipta prostrata, read-out: Control efficacy grade, Eclipta prostrata) [%]	pest or weed control at 150 g/ha ([4]; Dinebra chinensis, read-out: Control efficacy grade, Leptochloa chinensis) [%]
CCC(C)S(=O)(=O)c1c(S(C)(=O)=O)ccc(C(=O)Nc2nonc2C)c1Cl (racemic) [Compound 4-24]	A (Fresh weight inhibition rate≥80% to 100%)	A (Fresh weight inhibition rate≥80% to 100%)	A (Fresh weight inhibition rate≥80% to 100%)	A (Fresh weight inhibition rate≥80% to 100%)					
CCCSc1c(S(C)(=O)=O)ccc(C(=O)Nc2nnc(C3CC3)o2)c1Cl [Compound 3-615]	A (Fresh weight inhibition rate≥80% to 100%)	A (Fresh weight inhibition rate≥80% to 100%)	A (Fresh weight inhibition rate≥80% to 100%)	A (Fresh weight inhibition rate≥80% to 100%)					
Cc1nnc(NC(=O)c2ccc(S(C)(=O)=O)c(SC(C)(C)C)c2Cl)o1 [Compound 3-32]	A (Fresh weight inhibition rate≥80% to 100%)	B (Fresh weight inhibition rate≥260% to <80%)		A (Fresh weight inhibition rate≥80% to 100%)	A (Fresh weight inhibition rate≥80% to 100%)				
CS(=O)(=O)c1ccc(C(=O)Nc2nnc(C3CC3)o2)c(Cl)c1[S+]([O-])C1CCCC1 (racemic) [Compound 3-662]	A (Fresh weight inhibition rate≥80% to 100%)	A (Fresh weight inhibition rate≥80% to 100%)	A (Fresh weight inhibition rate≥80% to 100%)	A (Fresh weight inhibition rate≥80% to 100%)					
CS(=O)(=O)c1ccc(C(=O)Nc2nnc(C3CC3)o2)c(Cl)c1[S+]([O-])C1CC1 (racemic) [Compound 3-652]	A (Fresh weight inhibition rate≥80% to 100%)	A (Fresh weight inhibition rate≥80% to 100%)	A (Fresh weight inhibition rate≥80% to 100%)	A (Fresh weight inhibition rate≥80% to 100%)					
Cc1nonc1NC(=O)c1ccc(S(C)(=O)=O)c([S+]([O-])C(C)C)c1Cl (racemic) [Compound 4-7]		B (Fresh weight inhibition rate≥260% to <80%)	A (Fresh weight inhibition rate≥80% to 100%)	A (Fresh weight inhibition rate≥80% to 100%)	A (Fresh weight inhibition rate≥80% to 100%)				
Cc1nonc1NC(=O)c1ccc(S(C)(=O)=O)c(S(=O)(=O)C(C)C)c1Cl [Compound 4-10]	A (Fresh weight inhibition rate≥80% to 100%)	B (Fresh weight inhibition rate≥260% to <80%)		A (Fresh weight inhibition rate≥80% to 100%)	A (Fresh weight inhibition rate≥80% to 100%)				
CCc1nnc(NC(=O)c2ccc(S(C)(=O)=O)c(SCC(F)F)c2Cl)o1 [Compound 3-444]		B (Fresh weight inhibition rate≥260% to <80%)		A (Fresh weight inhibition rate≥80% to 100%)	A (Fresh weight inhibition rate≥80% to 100%)				
CCCSc1c(S(C)(=O)=O)ccc(C(=O)Nc2nonc2C)c1Cl [Compound 4-1, 2-chloro-N-(4-methyl-1,2,5-oxadiazol-3-yl)-4-(methylsulfonyl)-3-(propylthio)benzamide]						80 to 100	80 to 100	80 to 100	80 to 100
C=C(C)CS(=O)(=O)c1c(S(C)(=O)=O)ccc(C(=O)Nc2nnc(C)o2)c1Cl [Compound 3-146]	A (Fresh weight inhibition rate≥80% to 100%)	B (Fresh weight inhibition rate≥260% to <80%)	A (Fresh weight inhibition rate≥80% to 100%)	A (Fresh weight inhibition rate≥80% to 100%)					
C=CCSc1c(S(C)(=O)=O)ccc(C(=O)Nc2nnc(CC)o2)c1Cl [Compound 3-454]	A (Fresh weight inhibition rate≥80% to 100%)	A (Fresh weight inhibition rate≥80% to 100%)		A (Fresh weight inhibition rate≥80% to 100%)	A (Fresh weight inhibition rate≥80% to 100%)				
Cn1ncnc1NC(=O)c1ccc(S(C)(=O)=O)c(SC2CC2)c1Cl [Compound 2-32]		A (Fresh weight inhibition rate≥80% to 100%)	A (Fresh weight inhibition rate≥80% to 100%)	A (Fresh weight inhibition rate≥80% to 100%)	A (Fresh weight inhibition rate≥80% to 100%)				
Cc1nnc(NC(=O)c2ccc(S(C)(=O)=O)c([S+]([O-])Cc3ccccc3)c2Cl)o1 (racemic) [Compound 3-68]	A (Fresh weight inhibition rate≥80% to 100%)	B (Fresh weight inhibition rate≥260% to <80%)	A (Fresh weight inhibition rate≥80% to 100%)	A (Fresh weight inhibition rate≥80% to 100%)					
Cc1nnc(NC(=O)c2ccc(S(C)(=O)=O)c(SCC(F)(F)C(F)(F)F)c2Cl)o1 [Compound 3-172]	A (Fresh weight inhibition rate≥80% to 100%)	A (Fresh weight inhibition rate≥80% to 100%)	A (Fresh weight inhibition rate≥80% to 100%)	A (Fresh weight inhibition rate≥80% to 100%)					
CCCSc1c(S(C)(=O)=O)ccc(C(=O)N(C)c2nnnn2C)c1Cl [Compound 1-97]	A (Fresh weight inhibition rate≥80% to 100%)	B (Fresh weight inhibition rate≥260% to <80%)							
CCC(C)[S+]([O-])c1c(S(C)(=O)=O)ccc(C(=O)Nc2nnnn2C)c1Cl (mixture of isomers) [Compound 1-19]		A (Fresh weight inhibition rate≥80% to 100%)	A (Fresh weight inhibition rate≥80% to 100%)	A (Fresh weight inhibition rate≥80% to 100%)	A (Fresh weight inhibition rate≥80% to 100%)				
Cc1nnc(NC(=O)c2ccc(S(C)(=O)=O)c([S+]([O-])CCCl)c2Cl)o1 (racemic) [Compound 3-213]	A (Fresh weight inhibition rate≥80% to 100%)	A (Fresh weight inhibition rate≥80% to 100%)		A (Fresh weight inhibition rate≥80% to 100%)	A (Fresh weight inhibition rate≥80% to 100%)				
Cc1nnc(NC(=O)c2ccc(S(C)(=O)=O)c(SC(C)C#N)c2Cl)o1 (stereo not drawn) [Compound 3-202]	B (Fresh weight inhibition rate≥260% to <80%)	B (Fresh weight inhibition rate≥260% to <80%)		A (Fresh weight inhibition rate≥80% to 100%)	A (Fresh weight inhibition rate≥80% to 100%)				
